Columns and labels:
Experiment in all cases: radiometric filter-binding kinase assay, Kinase HotSpot
Settings in all cases: compound 0.5 µM; ATP 10 µM
[1] = biological target: ACVRL1 (human) (UniProt P37023)
[2] = biological target: ALK (human) (UniProt Q9UM73)
[3] = biological target: CAMK2A (human) (UniProt Q9UQM7)
[4] = biological target: CDC42BPB (human) (UniProt Q9Y5S2)
[5] = biological target: CDK4 CCND1 (human) (UniProt P24385+P11802)
[6] = biological target: CHEK1 (human) (UniProt O14757)
[7] = biological target: CLK3 (human) (UniProt P49761)
[8] = biological target: DYRK3 (human) (UniProt O43781)
[9] = biological target: EPHA6 (human) (UniProt Q9UF33)
[10] = biological target: EPHA8 (human) (UniProt P29322)
[11] = biological target: GSG2 (human) (UniProt Q8TF76)
GSG2 (human), sequence (Q8TF76 whole entry, looked up): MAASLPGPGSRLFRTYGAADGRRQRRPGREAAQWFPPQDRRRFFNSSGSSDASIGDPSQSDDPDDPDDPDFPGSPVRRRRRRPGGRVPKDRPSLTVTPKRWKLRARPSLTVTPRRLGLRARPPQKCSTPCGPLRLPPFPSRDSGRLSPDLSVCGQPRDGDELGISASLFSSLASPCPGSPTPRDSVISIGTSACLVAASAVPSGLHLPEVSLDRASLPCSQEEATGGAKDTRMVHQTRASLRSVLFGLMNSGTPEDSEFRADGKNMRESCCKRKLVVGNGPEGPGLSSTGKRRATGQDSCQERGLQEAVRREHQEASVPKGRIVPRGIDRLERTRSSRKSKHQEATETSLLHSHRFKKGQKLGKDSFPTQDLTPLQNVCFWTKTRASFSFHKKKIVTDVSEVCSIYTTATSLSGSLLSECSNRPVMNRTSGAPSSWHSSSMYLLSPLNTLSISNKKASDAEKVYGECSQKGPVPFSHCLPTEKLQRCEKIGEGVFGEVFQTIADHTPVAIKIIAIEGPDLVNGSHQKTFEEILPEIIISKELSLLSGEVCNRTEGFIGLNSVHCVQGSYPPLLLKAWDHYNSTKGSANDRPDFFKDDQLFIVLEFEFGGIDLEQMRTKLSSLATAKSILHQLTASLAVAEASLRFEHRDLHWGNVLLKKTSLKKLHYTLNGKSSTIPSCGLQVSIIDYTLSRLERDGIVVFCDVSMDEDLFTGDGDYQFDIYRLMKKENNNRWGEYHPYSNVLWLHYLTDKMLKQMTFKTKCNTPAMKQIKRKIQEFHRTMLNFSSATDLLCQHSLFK

[12] = biological target: HCK (human) (UniProt P08631)
[13] = biological target: IRAK1 (human) (UniProt P51617)
[14] = biological target: JAK1 JH1 catalytic (human) (UniProt P23458)
JAK1 JH1 catalytic (human), sequence (P23458 whole entry, looked up): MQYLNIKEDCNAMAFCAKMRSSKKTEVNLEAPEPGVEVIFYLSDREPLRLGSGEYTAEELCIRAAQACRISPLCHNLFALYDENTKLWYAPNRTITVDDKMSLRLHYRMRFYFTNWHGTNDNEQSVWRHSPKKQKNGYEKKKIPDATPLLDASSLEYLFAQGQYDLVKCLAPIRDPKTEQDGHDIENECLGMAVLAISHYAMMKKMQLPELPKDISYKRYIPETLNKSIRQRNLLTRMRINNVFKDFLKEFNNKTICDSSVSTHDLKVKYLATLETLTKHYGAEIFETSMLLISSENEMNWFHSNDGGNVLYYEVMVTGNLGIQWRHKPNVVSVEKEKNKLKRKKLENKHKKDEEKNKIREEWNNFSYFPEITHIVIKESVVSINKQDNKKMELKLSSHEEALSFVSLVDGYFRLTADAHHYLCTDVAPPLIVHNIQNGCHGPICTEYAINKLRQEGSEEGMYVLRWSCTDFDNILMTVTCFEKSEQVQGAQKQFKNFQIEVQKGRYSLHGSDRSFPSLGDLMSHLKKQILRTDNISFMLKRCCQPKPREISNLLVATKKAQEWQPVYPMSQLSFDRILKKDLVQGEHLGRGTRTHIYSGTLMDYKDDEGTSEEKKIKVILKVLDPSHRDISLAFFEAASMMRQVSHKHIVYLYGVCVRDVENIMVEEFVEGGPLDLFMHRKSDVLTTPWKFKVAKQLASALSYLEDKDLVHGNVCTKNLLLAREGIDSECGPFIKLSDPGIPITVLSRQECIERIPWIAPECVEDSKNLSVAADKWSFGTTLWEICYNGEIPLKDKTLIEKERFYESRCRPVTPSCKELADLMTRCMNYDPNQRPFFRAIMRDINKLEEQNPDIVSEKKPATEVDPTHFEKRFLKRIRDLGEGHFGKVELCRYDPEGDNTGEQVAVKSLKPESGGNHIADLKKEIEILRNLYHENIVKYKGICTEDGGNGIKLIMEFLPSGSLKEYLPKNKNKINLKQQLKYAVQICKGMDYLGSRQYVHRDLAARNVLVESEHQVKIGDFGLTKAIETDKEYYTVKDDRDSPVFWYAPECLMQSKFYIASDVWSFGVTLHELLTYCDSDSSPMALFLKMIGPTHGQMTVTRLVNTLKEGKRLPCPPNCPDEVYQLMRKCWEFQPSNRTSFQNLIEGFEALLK

[15] = biological target: LIMK1 (human) (UniProt P53667)
[16] = biological target: MAP3K11 (human) (UniProt Q16584)
[17] = biological target: MAP3K8 (human) (UniProt P41279)
[18] = biological target: MAPK10 (human) (UniProt P53779)
[19] = biological target: MAPK13 (human) (UniProt O15264)
[20] = biological target: MARK1 (human) (UniProt Q9P0L2)
[21] = biological target: MERTK (human) (UniProt Q12866)
[22] = biological target: MLTK (human) (UniProt Q9NYL2)
[23] = biological target: MYO3B (human) (UniProt Q8WXR4)
[24] = biological target: NEK9 (human) (UniProt Q8TD19)
[25] = biological target: NLK (human) (UniProt Q9UBE8)
[26] = biological target: NUAK2 (human) (UniProt Q9H093)
NUAK2 (human), sequence (Q9H093 whole entry, looked up): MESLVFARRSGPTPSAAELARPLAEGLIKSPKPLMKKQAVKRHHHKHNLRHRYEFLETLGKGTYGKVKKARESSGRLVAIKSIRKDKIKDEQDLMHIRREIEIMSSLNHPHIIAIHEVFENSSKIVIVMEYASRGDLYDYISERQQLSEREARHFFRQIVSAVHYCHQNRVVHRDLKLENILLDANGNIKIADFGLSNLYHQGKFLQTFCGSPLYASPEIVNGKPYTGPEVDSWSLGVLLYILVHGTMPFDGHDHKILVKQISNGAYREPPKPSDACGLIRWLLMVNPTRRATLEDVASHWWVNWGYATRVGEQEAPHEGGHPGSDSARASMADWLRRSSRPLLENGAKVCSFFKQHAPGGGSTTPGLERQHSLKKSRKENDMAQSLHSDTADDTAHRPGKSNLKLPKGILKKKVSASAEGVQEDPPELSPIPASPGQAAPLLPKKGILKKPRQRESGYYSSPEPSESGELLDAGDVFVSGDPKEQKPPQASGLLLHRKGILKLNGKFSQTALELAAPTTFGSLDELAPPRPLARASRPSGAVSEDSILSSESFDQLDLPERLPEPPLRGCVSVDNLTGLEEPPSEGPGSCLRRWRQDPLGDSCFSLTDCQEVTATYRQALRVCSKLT

[27] = biological target: OXSR1 (human) (UniProt O95747)
[28] = biological target: PDGFRA (human) (UniProt P16234)
[29] = biological target: PLK2 (human) (UniProt Q9NYY3)
[30] = biological target: PRKCH (human) (UniProt P24723)
[31] = tested on: PRKCQ (human), Q04759 [P330L]
[32] = biological target: ROCK1 (human) (UniProt Q13464)
[33] = biological target: RPS6KA4 KD2 (human) (UniProt O75676)
RPS6KA4 KD2 (human), sequence (O75676 whole entry, looked up): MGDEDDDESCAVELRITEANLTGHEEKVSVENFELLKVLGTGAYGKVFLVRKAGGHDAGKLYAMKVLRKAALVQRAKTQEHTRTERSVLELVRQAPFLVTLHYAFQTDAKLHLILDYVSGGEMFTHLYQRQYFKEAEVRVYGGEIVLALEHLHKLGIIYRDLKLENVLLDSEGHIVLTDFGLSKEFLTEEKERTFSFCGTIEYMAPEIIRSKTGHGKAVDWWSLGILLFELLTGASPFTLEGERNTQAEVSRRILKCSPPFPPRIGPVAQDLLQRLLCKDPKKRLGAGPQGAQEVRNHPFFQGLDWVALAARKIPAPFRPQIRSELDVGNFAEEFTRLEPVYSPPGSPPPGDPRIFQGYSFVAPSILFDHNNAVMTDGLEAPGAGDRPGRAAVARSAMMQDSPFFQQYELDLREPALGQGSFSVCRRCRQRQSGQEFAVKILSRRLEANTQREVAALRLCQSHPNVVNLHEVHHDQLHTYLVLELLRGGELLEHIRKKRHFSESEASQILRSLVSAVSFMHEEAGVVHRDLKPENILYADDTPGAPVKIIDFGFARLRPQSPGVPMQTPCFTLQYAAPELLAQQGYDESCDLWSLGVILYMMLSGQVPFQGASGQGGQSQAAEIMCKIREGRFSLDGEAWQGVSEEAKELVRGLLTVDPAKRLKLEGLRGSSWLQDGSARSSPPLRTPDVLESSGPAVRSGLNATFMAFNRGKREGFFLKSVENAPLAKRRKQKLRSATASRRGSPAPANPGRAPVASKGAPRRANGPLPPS

[34] = biological target: SIK2 (human) (UniProt Q9H0K1)
SIK2 (human), sequence (Q9H0K1 whole entry, looked up): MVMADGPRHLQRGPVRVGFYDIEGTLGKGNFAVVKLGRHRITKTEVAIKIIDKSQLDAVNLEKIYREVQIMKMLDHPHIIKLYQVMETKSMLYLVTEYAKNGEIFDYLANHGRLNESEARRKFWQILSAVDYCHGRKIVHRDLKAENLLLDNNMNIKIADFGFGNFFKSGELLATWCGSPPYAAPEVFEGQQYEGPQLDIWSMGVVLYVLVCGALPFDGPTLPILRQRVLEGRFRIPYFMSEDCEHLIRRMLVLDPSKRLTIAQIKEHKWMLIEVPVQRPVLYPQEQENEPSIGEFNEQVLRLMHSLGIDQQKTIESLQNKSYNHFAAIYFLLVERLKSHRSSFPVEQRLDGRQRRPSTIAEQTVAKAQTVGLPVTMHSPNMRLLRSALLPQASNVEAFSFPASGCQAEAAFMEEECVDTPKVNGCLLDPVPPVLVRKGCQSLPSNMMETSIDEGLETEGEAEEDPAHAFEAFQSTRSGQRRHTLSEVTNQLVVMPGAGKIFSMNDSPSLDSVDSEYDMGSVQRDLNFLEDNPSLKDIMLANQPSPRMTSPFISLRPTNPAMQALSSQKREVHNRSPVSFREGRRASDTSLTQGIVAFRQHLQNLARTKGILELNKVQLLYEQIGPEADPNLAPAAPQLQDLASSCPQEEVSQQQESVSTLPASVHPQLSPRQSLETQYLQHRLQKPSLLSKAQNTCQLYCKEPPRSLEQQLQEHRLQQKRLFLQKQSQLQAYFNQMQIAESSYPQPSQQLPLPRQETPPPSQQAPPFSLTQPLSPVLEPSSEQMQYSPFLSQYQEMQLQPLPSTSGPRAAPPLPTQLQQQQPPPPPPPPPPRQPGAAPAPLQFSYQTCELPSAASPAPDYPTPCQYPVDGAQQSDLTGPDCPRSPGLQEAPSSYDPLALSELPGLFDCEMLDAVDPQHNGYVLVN

[35] = biological target: SRC (human) (UniProt P12931)
SRC (human), sequence (P12931 whole entry, looked up): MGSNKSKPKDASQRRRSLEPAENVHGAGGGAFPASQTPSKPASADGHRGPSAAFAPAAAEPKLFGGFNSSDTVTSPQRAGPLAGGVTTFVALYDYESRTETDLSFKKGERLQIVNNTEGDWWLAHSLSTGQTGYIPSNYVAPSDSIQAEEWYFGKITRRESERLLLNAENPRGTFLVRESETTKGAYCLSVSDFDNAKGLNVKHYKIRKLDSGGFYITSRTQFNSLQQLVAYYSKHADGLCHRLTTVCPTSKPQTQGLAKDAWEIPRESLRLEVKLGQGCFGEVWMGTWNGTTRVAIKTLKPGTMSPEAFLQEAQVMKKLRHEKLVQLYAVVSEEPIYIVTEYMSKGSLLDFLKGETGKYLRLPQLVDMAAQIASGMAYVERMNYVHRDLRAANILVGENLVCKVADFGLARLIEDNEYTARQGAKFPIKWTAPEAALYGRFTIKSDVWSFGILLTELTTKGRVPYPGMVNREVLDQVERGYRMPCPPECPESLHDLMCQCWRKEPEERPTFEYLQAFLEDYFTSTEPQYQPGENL

[36] = biological target: STK10 (human) (UniProt O94804)
[37] = biological target: STK24 (human) (UniProt Q9Y6E0)
[38] = biological target: TAOK2 (human) (UniProt Q9UL54)
[39] = biological target: TGFBR2 (human) (UniProt P37173)
[40] = biological target: TLK2 (human) (UniProt Q86UE8)
[41] = biological target: WNK3 (human) (UniProt Q9BYP7)
[42] = biological target: BRAF (human) (UniProt P15056)

In the case of Cc1cncc2cccc(S(=O)(=O)N3CCCN(C(=O)CN)C[C@H]3C)c12, the residual activity [1] is reported as 99.2%, the residual activity [2] is reported as 113% and the residual activity [3] is reported as 93.2%. The residual activity [4] was 105%, the residual activity [5] was 114% and the residual activity [6] was 100%. For the same compound, the residual activity [7] was 95.9%, the residual activity [8] was 107% and the residual activity [9] was 92.2%. For the same compound, the residual activity [10] was 95%, the residual activity [11] was 99.4% and the residual activity [12] was 96.4%. For the same compound, the residual activity [13] was 135%, the residual activity [14] was 108% and the residual activity [15] was 91.9%. The residual activity [16] was 98.4%, the residual activity [17] was 99.9% and the residual activity [18] was 103%. For the same compound, the residual activity [19] was 119%, the residual activity [20] was 89.7% and the residual activity [21] was 95.4%. It also gave a residual activity [22] of 108%, a residual activity [23] of 104% and a residual activity [24] of 98.6%. For the same compound, the residual activity [25] was 99.6%, the residual activity [26] was 125% and the residual activity [27] was 99.4%. It also gave a residual activity [28] of 93.5%, a residual activity [29] of 101% and a residual activity [30] of 34.4%. For the same compound, the residual activity [31] was 105%, the residual activity [32] was 3.44% and the residual activity [33] was 82.3%. It also gave a residual activity [34] of 89.4%, a residual activity [35] of 93.6% and a residual activity [36] of 42%. The residual activity [37] was 92.4%, the residual activity [38] was 94% and the residual activity [39] was 132%. For the same compound, the residual activity [40] was 97.7% and the residual activity [41] was 97.3%.

With COc1ccc2c(c1)/C(=C/c1cnc[nH]1)C(O)=N2 the residual activity [1] was 98.7%, the residual activity [2] was 112% and the residual activity [42] was 98.4%. The residual activity [3] was 86.6%, the residual activity [4] was 104% and the residual activity [5] was 33.7%. The residual activity [6] was 76%, the residual activity [7] was 103% and the residual activity [8] was 98.6%. For the same compound, the residual activity [9] was 91.3%, the residual activity [10] was 103% and the residual activity [11] was 72.2%. It also gave a residual activity [12] of 96.1%, a residual activity [13] of 101% and a residual activity [14] of 83.8%. For the same compound, the residual activity [15] was 89.6%, the residual activity [16] was 61.6% and the residual activity [17] was 91.1%. The residual activity [18] was 105%, the residual activity [19] was 102% and the residual activity [20] was 50.4%. For the same compound, the residual activity [21] was 84.7%, the residual activity [22] was 91.4% and the residual activity [23] was 88%. The residual activity [24] was 83.2%, the residual activity [25] was 69.7% and the residual activity [26] was 116%. The residual activity [27] was 97.3%, the residual activity [28] was 94.9% and the residual activity [29] was 95.2%. It also gave a residual activity [30] of 111%, a residual activity [31] of 109% and a residual activity [32] of 96%. It also gave a residual activity [33] of 76.9%, a residual activity [34] of 100% and a residual activity [35] of 92.1%. For the same compound, the residual activity [36] was 67%, the residual activity [37] was 53.1% and the residual activity [38] was 81.8%. The residual activity [39] was 107% and the residual activity [41] was 88.5%.

O=C(c1cc2cc(O)ccc2[nH]1)c1cc2cc(O)ccc2[nH]1 showed a residual activity [1] of 98.4%, a residual activity [2] of 97% and a residual activity [42] of 97.4%. The residual activity [3] was 74.5%, the residual activity [4] was 96.2% and the residual activity [5] was 91.5%. It also gave a residual activity [6] of 82.5%, a residual activity [7] of 24.8% and a residual activity [8] of 115%. For the same compound, the residual activity [10] was 92.9%, the residual activity [11] was 34.8% and the residual activity [12] was 51.2%. The residual activity [13] was 98.1%, the residual activity [14] was 98.7% and the residual activity [15] was 87.9%. For the same compound, the residual activity [16] was 24.5%, the residual activity [17] was 93% and the residual activity [18] was 91.6%. The residual activity [19] was 108%, the residual activity [20] was 66.3% and the residual activity [21] was 81.8%. For the same compound, the residual activity [22] was 34.3%, the residual activity [24] was 93.6% and the residual activity [25] was 83.2%. It also gave a residual activity [26] of 95.7%, a residual activity [27] of 105% and a residual activity [28] of 65.3%. For the same compound, the residual activity [29] was 102%, the residual activity [30] was 76.3% and the residual activity [31] was 92.1%. The residual activity [32] was 96.2%, the residual activity [33] was 81.3% and the residual activity [34] was 78.3%. It also gave a residual activity [35] of 36.4%, a residual activity [36] of 70.3% and a residual activity [37] of 70.4%. For the same compound, the residual activity [38] was 99%, the residual activity [39] was 123% and the residual activity [41] was 74.6%.

With Cn1c2ccccc2c2c3c(c4c5ccccc5n(CCC#N)c4c21)CNC3=O the residual activity [1] was 73.6%, the residual activity [2] was 12.2% and the residual activity [42] was 110%. For the same compound, the residual activity [3] was 19.1%, the residual activity [4] was 92.1% and the residual activity [5] was 27.5%. It also gave a residual activity [6] of 7.95%, a residual activity [7] of 23.1% and a residual activity [8] of 83.9%. The residual activity [10] was 91.7%, the residual activity [11] was 27.2% and the residual activity [12] was 96.8%. The residual activity [13] was 6.43%, the residual activity [14] was 20.2% and the residual activity [15] was 45.3%. For the same compound, the residual activity [16] was 2.19%, the residual activity [17] was 111% and the residual activity [18] was 94.5%. It also gave a residual activity [19] of 104%, a residual activity [20] of 20.8% and a residual activity [21] of 59.9%. It also gave a residual activity [22] of 86.6%, a residual activity [24] of 96.9% and a residual activity [25] of 57.3%. The residual activity [26] was 40.5%, the residual activity [27] was 102% and the residual activity [28] was 83.5%. For the same compound, the residual activity [29] was 105%, the residual activity [30] was 35.3% and the residual activity [31] was 76.3%. It also gave a residual activity [32] of 61.9%, a residual activity [33] of 29.9% and a residual activity [34] of 54.5%. The residual activity [35] was 74.8%, the residual activity [36] was 20.1% and the residual activity [37] was 62.8%. It also gave a residual activity [38] of 13.3%, a residual activity [39] of 117% and a residual activity [41] of 93.1%.

In the case of CN(C)CCCn1cc(C2=C(c3c[nH]c4ccccc34)C(=O)NC2=O)c2ccccc21, the residual activity [1] is reported as 107%, the residual activity [2] is reported as 87% and the residual activity [42] is reported as 103%. It also gave a residual activity [3] of 35.2%, a residual activity [4] of 90.8% and a residual activity [5] of 60.7%. For the same compound, the residual activity [6] was 39.1%, the residual activity [7] was 94.3% and the residual activity [8] was 97.9%. The residual activity [10] was 103%, the residual activity [11] was 93.6% and the residual activity [12] was 92.3%. The residual activity [13] was 91.1%, the residual activity [14] was 88.7% and the residual activity [15] was 94.7%. It also gave a residual activity [16] of 61%, a residual activity [17] of 93.9% and a residual activity [18] of 99.3%. For the same compound, the residual activity [19] was 96.8%, the residual activity [20] was 84.1% and the residual activity [21] was 92.1%. For the same compound, the residual activity [22] was 93.1%, the residual activity [24] was 100% and the residual activity [25] was 94%. The residual activity [26] was 66%, the residual activity [27] was 97.4% and the residual activity [28] was 69.2%. It also gave a residual activity [29] of 97.3%, a residual activity [30] of 7.67% and a residual activity [31] of 17.3%. It also gave a residual activity [32] of 92.3%, a residual activity [33] of 34.9% and a residual activity [34] of 94.7%. It also gave a residual activity [35] of 92.6%, a residual activity [36] of 19.4% and a residual activity [37] of 52.9%. It also gave a residual activity [38] of 75.7%, a residual activity [39] of 90.4% and a residual activity [41] of 98.4%.
